Patent US10800784B2, “Nitrogen-containing heterocyclic amide compound and pharmaceutical use thereof” (Japan Tobacco Inc., priority 2018, dated 2020)

Experiments:
human PDHK1 (hPDHK1) = human PDHK1 (hPDHK1) (Homo sapiens (Human), UniProt Q15118); experiment: Inhibitory action of PDHK1 activity in vitro (residual PDH activity after PDHK reaction); assay type: biochemical; details: PDH/hPDHK1 complex solution, PDHK reaction at room temperature for 45 min, NADH absorbance at 340 nm; read-out: hPDK1 IC50
Sequence of human PDHK1 (hPDHK1) (Q15118 29-436): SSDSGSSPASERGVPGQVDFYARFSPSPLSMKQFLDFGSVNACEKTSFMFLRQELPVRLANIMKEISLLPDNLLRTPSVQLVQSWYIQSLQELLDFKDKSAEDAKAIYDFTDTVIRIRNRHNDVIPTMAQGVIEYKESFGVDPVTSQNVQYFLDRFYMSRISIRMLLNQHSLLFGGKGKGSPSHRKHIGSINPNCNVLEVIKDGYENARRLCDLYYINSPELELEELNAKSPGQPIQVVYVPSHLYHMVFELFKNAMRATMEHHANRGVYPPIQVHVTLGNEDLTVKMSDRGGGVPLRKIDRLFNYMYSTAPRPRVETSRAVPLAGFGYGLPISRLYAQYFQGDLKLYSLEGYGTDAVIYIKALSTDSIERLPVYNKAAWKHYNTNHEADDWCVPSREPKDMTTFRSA
In short: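 N-FLAG hPDHK1 (E. coli-expressed, 0.5 μg/mL) precomplexed overnight at 4 °C with porcine heart PDH (0.025 U/mL), then reacted 45 min at room temperature with compound and ATP (0.353 μmol/L as added) in MOPS pH 7.0 buffer. Residual PDH activity after 90 min with pyruvate, CoA, NAD, TPP read as NADH at 340 nm.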

human PDHK2 (hPDHK2) = human PDHK2 (hPDHK2) (Homo sapiens (Human), UniProt Q15119); experiment: Inhibitory action of PDHK2 activity in vitro (residual PDH activity after PDHK reaction); assay type: biochemical; details: PDH/hPDHK2 complex solution, PDHK reaction at room temperature for 45 min, NADH absorbance at 340 nm; read-out: kPDK2 IC50
In short: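 Indirect assay: FLAG-tagged hPDHK2 (0.5 μg/mL) precomplexed overnight at 4 °C with PDH (0.025 U/mL), then kinase reaction with compound and ATP 45 min at room temperature, pH 7.0 MOPS buffer. Residual PDH activity measured after 90 min with pyruvate, CoA, NAD, TPP as NADH absorbance at 340 nm, corrected for compound effect on PDH-only blank.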

Row | IC50 (human PDHK1 (hPDHK1)) [nM] | IC50 (human PDHK2 (hPDHK2)) [nM] | SMILES
1 | 10 | 10 | C[C@H]1CN(C(=O)c2cnc(-c3ccccc3)nc2)Cc2cnc([C@@](C)(O)C(F)(F)F)n21 [Example 56]
2 | 11 | 10 | C[C@H]1CN(C(=O)c2ccc(=O)n(-c3ccc(F)cc3)c2)Cc2cnc([C@@](C)(O)C(F)(F)F)n21 [Example 57]
3 | 3 | 4 | C[C@H]1CN(C(=O)c2ccc(F)c(-c3ccc(C#N)cn3)c2)Cc2cnc([C@@](C)(O)C(F)(F)F)n21 [Example 58]
4 | 4 | 3 | Cc1cc(-c2ccc(F)cc2C#N)ncc1C(=O)N1Cc2cnc([C@@](C)(O)C(F)(F)F)n2[C@@H](C)C1 [Example 59]
5 | 14 | 9 | C[C@H]1CN(C(=O)C2CCC(n3cccn3)CC2)Cc2cnc([C@@](C)(O)C(F)(F)F)n21 (stereo partly shown) [Example 60]
6 | 3 | 5 | C[C@H]1CN(C(=O)c2cc(-c3ccc(F)cc3C#N)nn2C)Cc2cnc([C@@](C)(O)C(F)(F)F)n21 [Example 61]
7 | 3 | 4 | C[C@H]1CN(C(=O)c2ccnc(-c3ccc(C#N)cc3F)c2)Cc2cnc([C@@](C)(O)C(F)(F)F)n21 [Example 62]
8 | 5 | 7 | Cc1cc(C#N)ccc1-c1cc(C(=O)N2Cc3cnc([C@@](C)(O)C(F)(F)F)n3[C@@H](C)C2)ccn1 [Example 63]
9 | 5 | 7 | C[C@H]1CN(C(=O)c2ccc(F)c(-c3ccnn3C)c2)Cc2cnc([C@@](C)(O)C(F)(F)F)n21 [Example 64]
10 | 4 | 5 | Cc1c(C(=O)N2Cc3cnc([C@@](C)(O)C(F)(F)F)n3[C@@H](C)C2)ccnc1-c1ccc(C#N)cc1 [Example 65]
11 | 4 | 6 | C[C@H]1CN(C(=O)c2cc(-c3ccc(Cl)cn3)nn2C)Cc2cnc([C@@](C)(O)C(F)(F)F)n21 [Example 66]
12 | 5 | 7 | C[C@H]1CN(C(=O)c2ccnc(-c3ccc(C#N)cc3)c2)Cc2cnc([C@@](C)(O)C(F)(F)F)n21 [Example 67]
13 | 4 | 6 | C[C@H]1CN(C(=O)c2cc(-c3ccc(C#N)cc3)ncc2F)Cc2cnc([C@@](C)(O)C(F)(F)F)n21 [Example 68, 4-(5-fluoro-4-((S)-5-methyl-3-((R)-1,1,1-trifluoro-2-hydroxypropan-2-yl)-5,6,7,8-tetrahydroimidazo[1,5-a]pyrazine-7-carbonyl)pyridin-2-yl)benzonitrile]
14 | 5 | 8 | C[C@H]1CN(C(=O)c2ccc(F)c(-c3ncc(F)cc3C#N)c2)Cc2cnc([C@@](C)(O)C(F)(F)F)n21 [Example 69]
15 | 3 | 6 | C[C@H]1CN(C(=O)c2ccc(F)c(-c3ccc(F)cn3)c2)Cc2cnc([C@@](C)(O)C(F)(F)F)n21 [Example 70]
16 | 4 | 7 | C[C@H]1CN(C(=O)c2cncc(-c3ccc(C#N)cc3F)c2)Cc2cnc([C@@](C)(O)C(F)(F)F)n21 [Example 71]
17 | 7 | 9 | C[C@H]1CN(C(=O)c2cncc(-c3ccc(F)cc3C#N)c2)Cc2cnc([C@@](C)(O)C(F)(F)F)n21 [Example 72]
18 | 6 | 7 | C[C@H]1CN(C(=O)c2cc(-c3ccc(C#N)cn3)nn2C)Cc2cnc([C@@](C)(O)C(F)(F)F)n21 [Example 73, 6-(1-methyl-5-((S)-5-methyl-3-((R)-1,1,1-trifluoro-2-hydroxypropan-2-yl)-5,6,7,8-tetrahydroimidazo[1,5-a]pyrazine-7-carbonyl)-1H-pyrazol-3-yl)nicotinonitrile]
19 | 6 | 11 | C[C@H]1CN(C(=O)c2ccc(C#N)c(-n3cccn3)c2)Cc2cnc([C@@](C)(O)C(F)(F)F)n21 [Example 74]
20 | 6 | 11 | Cc1cc(C#N)ccc1-c1cc(C(=O)N2Cc3cnc([C@@](C)(O)C(F)(F)F)n3[C@@H](C)C2)n(C)n1 [Example 75]
